According to patent publication US8933079B2, “Pyridone and pyridazinone derivatives as anti-obesity agents” (Boehringer Ingelheim International GmbH, priority 2012, dated 2015):
pIC50, pKd: −log10 of the molar value.

Target: hMCH-1R (Homo sapiens (Human), UniProt Q99705)
Experiment: MCH-1 receptor binding test (125I-MCH binding to hMCH-1R transfected cell membranes)
Settings: for pIC50: competition with 100 pM 125I-MCH, membranes of CHO/Galpha16 cells stably transfected with hMCH-1R
Description: Res Commun. […] After the incubation the reaction is filtered using a cell harvester through 0.5% PEI treated fibreglass filters (GF/B, Unifilter Packard). The membrane-bound radioactivity retained on the filter is then determined after the addition of scintillator substance (Packard Microscint 20) in a measuring device (TopCount of Packard). […] The analysis of the concentration binding curve is carried out on the assumption of one receptor binding site.

Sequence of hMCH-1R (Q99705 whole entry): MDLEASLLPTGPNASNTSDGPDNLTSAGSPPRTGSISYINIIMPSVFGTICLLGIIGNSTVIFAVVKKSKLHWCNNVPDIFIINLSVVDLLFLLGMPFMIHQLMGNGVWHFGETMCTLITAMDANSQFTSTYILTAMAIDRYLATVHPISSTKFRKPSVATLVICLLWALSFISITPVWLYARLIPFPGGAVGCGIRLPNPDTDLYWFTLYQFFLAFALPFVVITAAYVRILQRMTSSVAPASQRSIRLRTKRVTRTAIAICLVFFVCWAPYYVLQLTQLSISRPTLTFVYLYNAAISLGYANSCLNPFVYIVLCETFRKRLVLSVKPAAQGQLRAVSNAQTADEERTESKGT

Compound | pIC50 | pKd (125I-MCH on hMCH-1R membranes, read-out: KD value of the radioligand)
Cc1cc(CN2CCC(CO)CC2)ccc1C(=O)Cn1ncc(OCc2ccccc2)cc1=O [Example 5.11, 5-Benzyloxy-2-{2-[4-(4-hydroxymethyl-piperidin-1-ylmethyl)-2-methyl-phenyl]-2-oxo-ethyl}-2H-pyridazin-3-one] | 7.89 | 
Cc1cc(CN2CC[C@H](O)C2)ccc1C(=O)Cn1ncc(OCc2ccc(F)cn2)cc1=O [Example 6.6] | 7.31 | 
Cc1cc(CN2CC(O)C2)ccc1C(=O)Cn1ncc(OCc2ccccc2)cc1=O [Example 5.7, 5-Benzyloxy-2-{2-[4-(3-hydroxy-azetidin-1-ylmethyl)-2-methyl-phenyl]-2-oxo-ethyl}-2H-pyridazin-3-one] | 8.00 | 
CCNCc1ccc(C(=O)Cn2ccc(OCc3ccc(Cl)cn3)cc2=O)c(C)c1 [Example 3.11, 4-(5-Chloro-pyridin-2-ylmethoxy)-1-[2-(4-ethylaminomethyl-2-methyl-phenyl)-2-oxo-ethyl]-1H-pyridin-2-one] | 7.59 | 
Cc1cc(CN2CCCC2)ccc1C(=O)Cn1ccc(OCc2ccccc2)cc1=O [Example 1.7, 4-Benzyloxy-1-[2-(2-methyl-4-pyrrolidin-1-ylmethyl-phenyl)-2-oxo-ethyl]-1H-pyridin-2-one] | 7.96 | 
CSCC[C@@H]1NC(=O)[C@@H](NC(=O)[C@H](CCCNC(=N)N)NC(=O)[C@H](CC(C)C)NC(=O)[C@H](CCSC)NC(=O)[C@H](CC(=O)O)NC(=O)[C@H](Cc2ccccc2)NC(=O)[C@@H](N)CC(=O)O)CSSC[C@@H](C(=O)N[C@@H](Cc2c[nH]c3ccccc23)C(=O)N[C@@H](CCC(N)=O)C(=O)N[C@H](C(=O)O)C(C)C)NC(=O)[C@@H]2CCCN2C(=O)[C@H](CCCNC(=N)N)NC(=O)[C@H](Cc2ccc(O)c(I)c2)NC(=O)[C@H](C(C)C)NC(=O)[C@H](CCCNC(=N)N)NC(=O)CNC(=O)[C@H](CC(C)C)NC1=O [^125I-MCH, reference compound] |  | 9.81
Cc1cc(CN2CCCCC2)ccc1C(=O)Cn1ccc(OCc2ccc(Cl)cn2)cc1=O [Example 3.6] | 7.59 | 
Cc1cc(CN2CCC(O)CC2)ccc1C(=O)Cn1ncc(OCc2ccccc2)cc1=O [Example 5.8] | 7.82 | 
CNCc1ccc(C(=O)Cn2ncc(OCc3ccc(Cl)cn3)cc2=O)c(C)c1 [Example 7.6, 5-(5-Chloro-pyridin-2-ylmethoxy)-2-[2-(2-methyl-4-methylaminomethyl-phenyl)-2-oxo-ethyl]-2H-pyridazin-3-one] | 7.55 | 
Cc1cc(CN2CCC(CO)CC2)ccc1C(=O)Cn1ccc(OCc2ccccc2)cc1=O [Example 1.6, 4-Benzyloxy-1-{2-[4-(4-hydroxymethyl-piperidin-1-ylmethyl)-2-methyl-phenyl]-2-oxo-ethyl}-1H-pyridin-2-one] | 7.62 | 
Cc1cc(CN2CCC[C@H](O)C2)ccc1C(=O)Cn1ccc(OCc2ccccc2)cc1=O [Example 1.13, (S)-4-Benzyloxy-1-{2-[4-(3-hydroxy-piperidin-1-ylmethyl)-2-methyl-phenyl]-2-oxo-ethyl}-1H-pyridin-2-one] | 7.54 | 
Cc1cc(CN2CCNCC2)ccc1C(=O)Cn1ncc(OCc2ccc(Cl)cn2)cc1=O [Example 7.17, 5-(5-Chloro-pyridin-2-ylmethoxy)-2-[2-(2-methyl-4-piperazin-1-ylmethyl-phenyl)-2-oxo-ethyl]-2H-pyridazin-3-one] | 7.08 | 
CCN(C)Cc1ccc(C(=O)Cn2ccc(OCc3ccc(Br)cn3)cc2=O)c(C)c1 [Example 4.18, 4-(5-Bromo-pyridin-2-ylmethoxy)-1-(2-{4-[(ethyl-methyl-amino)-methyl]-2-methyl-phenyl}-2-oxo-ethyl)-1H-pyridin-2-one] | 7.72 | 
Cc1cc(CN2CCC[C@H](O)C2)ccc1C(=O)Cn1ccc(OCc2ccc(Br)cn2)cc1=O [Example 4.4, (S)-4-(5-Bromo-pyridin-2-ylmethoxy)-1-{2-[4-(3-hydroxy-piperidin-1-ylmethyl)-2-methyl-phenyl]-2-oxo-ethyl}-1H-pyridin-2-one] | 7.74 | 
Cc1cc(CN2CCCC[C@@H]2CO)ccc1C(=O)Cn1ccc(OCc2ccc(Cl)cn2)cc1=O [Example 3.14] | 7.43 | 
Cc1cc(CN2CCCCC2)ccc1C(=O)Cn1ncc(OCc2ccc(Cl)cn2)cc1=O [Example 7.5] | 7.80 | 
Cc1cc(CN2CCCC[C@@H]2CO)ccc1C(=O)Cn1ccc(OCc2ccccc2)cc1=O [Example 1.16] | 7.54 | 
Cc1cc(CN2CC[C@H](O)C2)ccc1C(=O)Cn1ncc(OCc2ccccc2)cc1=O [Example 5.5] | 7.96 | 
Cc1cc(CN2CCCCC2)ccc1C(=O)Cn1ccc(OCc2ccc(F)cn2)cc1=O [Example 2.2] | 6.94 | 
Cc1cc(CN2CC[C@@H](O)C2)ccc1C(=O)Cn1ccc(OCc2ccc(Br)cn2)cc1=O [Example 4.9, (R)-4-(5-Bromo-pyridin-2-ylmethoxy)-1-{2-[4-(3-hydroxy-pyrrolidin-1-ylmethyl)-2-methyl-phenyl]-2-oxo-ethyl}-1H-pyridin-2-one] | 7.70 | 
CCNCc1ccc(C(=O)Cn2ncc(OCc3ccc(Cl)cn3)cc2=O)c(C)c1 [Example 7.7, 5-(5-Chloro-pyridin-2-ylmethoxy)-2-[2-(4-ethylaminomethyl-2-methyl-phenyl)-2-oxo-ethyl]-2H-pyridazin-3-one] | 7.74 | 
Cc1cc(CN2CCOC(C)C2)ccc1C(=O)Cn1ncc(OCc2ccccc2)cc1=O (stereo not shown) [Example 5.9, 5-Benzyloxy-2-{2-[2-methyl-4-(2-methyl-morpholin-4-ylmethyl)-phenyl]-2-oxo-ethyl}-2H-pyridazin-3-one] | 7.52 | 
Cc1cc(CN2CCC(C)(O)C2)ccc1C(=O)Cn1ncc(OCc2ccccc2)cc1=O (stereo not shown) [Example 5.14, 5-Benzyloxy-2-{2-[4-(3-hydroxy-3-methyl-pyrrolidin-1-ylmethyl)-2-methyl-phenyl]-2-oxo-ethyl}-2H-pyridazin-3-one] | 8.00 | 
Cc1cc(CN2CCC[C@H]2CO)ccc1C(=O)Cn1ccc(OCc2ccc(Cl)cn2)cc1=O [Example 3.2, 4-(5-Chloro-pyridin-2-ylmethoxy)-1-{2-[4-((S)-2-hydroxymethyl-pyrrolidin-1-ylmethyl)-2-methyl-phenyl]-2-oxo-ethyl}-1H-pyridin-2-one] | 7.44 | 
Cc1cc(CN2CC[C@H](O)C2)ccc1C(=O)Cn1ccc(OCc2ccc(Cl)cn2)cc1=O [Example 3.3] | 7.41 | 
Cc1cc(CN2CCC(O)CC2)ccc1C(=O)Cn1ccc(OCc2ccccc2)cc1=O [Example 1.3, 4-Benzyloxy-1-{2-[4-(4-hydroxy-piperidin-1-ylmethyl)-2-methyl-phenyl]-2-oxo-ethyl}-1H-pyridin-2-one] | 7.72 | 
Cc1cc(CN2CC(O)C2)ccc1C(=O)Cn1ccc(OCc2ccccc2)cc1=O [Example 1.1, 4-Benzyloxy-1-{2-[4-(3-hydroxy-azetidin-1-ylmethyl)-2-methyl-phenyl]-2-oxo-ethyl}-1H-pyridin-2-one] | 7.70 | 

The remaining lines, values ahead:

pIC50 | pKd (125I-MCH on hMCH-1R membranes, read-out: KD value of the radioligand) | Compound
7.66 |  | CNC(C)c1ccc(C(=O)Cn2ncc(OCc3ccc(OC)cn3)cc2=O)c(C)c1 (stereo not shown) [Example 10.2, 5-(5-Methoxy-pyridin-2-ylmethoxy)-2-{2-[2-methyl-4-(1-methylamino-ethyl)-phenyl]-2-oxo-ethyl}-2H-pyridazin-3-one]
7.68 |  | Cc1cc(CN2CCC[C@@H](O)C2)ccc1C(=O)Cn1ncc(OCc2ccc(Br)cn2)cc1=O [Example 8.6, (R)-5-(5-Bromo-pyridin-2-ylmethoxy)-2-{2-[4-(3-hydroxy-piperidin-1-ylmethyl)-2-methyl-phenyl]-2-oxo-ethyl}-2H-pyridazin-3-one]
7.70 |  | CNCc1ccc(C(=O)Cn2ncc(OCc3ccc(OC)cn3)cc2=O)c(C)c1 [Example 9.4, 5-(5-Methoxy-pyridin-2-ylmethoxy)-2-[2-(2-methyl-4-methylaminomethyl-phenyl)-2-oxo-ethyl]-2H-pyridazin-3-one]
7.62 |  | Cc1cc(CN2CCC[C@H](O)C2)ccc1C(=O)Cn1ncc(OCc2ccc(Br)cn2)cc1=O [Example 8.4]
7.62 |  | CCNCc1ccc(C(=O)Cn2ncc(OCc3ccc(OC)cn3)cc2=O)c(C)c1 [Example 9.5, 2-[2-(4-Ethylaminomethyl-2-methyl-phenyl)-2-oxo-ethyl]-5-(5-methoxy-pyridin-2-ylmethoxy)-2H-pyridazin-3-one]
7.77 |  | CCNCc1ccc(C(=O)Cn2ncc(OCc3ccc(Br)cn3)cc2=O)c(C)c1 [Example 8.8, 5-(5-Bromo-pyridin-2-ylmethoxy)-2-[2-(4-ethylaminomethyl-2-methyl-phenyl)-2-oxo-ethyl]-2H-pyridazin-3-one]
7.68 |  | Cc1cc(CN2CCC[C@H]2CO)ccc1C(=O)Cn1ncc(OCc2ccc(Br)cn2)cc1=O [Example 8.11]
7.70 |  | COc1ccc(COc2cnn(CC(=O)c3ccc(C(C)N(C)C)cc3C)c(=O)c2)nc1 (stereo not shown) [Example 10.1, 2-{2-[4-(1-Dimethylamino-ethyl)-2-methyl-phenyl]-2-oxo-ethyl}-5-(5-methoxy-pyridin-2-ylmethoxy)-2H-pyridazin-3-one]
7.60 |  | CNCc1ccc(C(=O)Cn2ncc(OCc3ccc(Br)cn3)cc2=O)c(C)c1 [Example 8.10, 5-(5-Bromo-pyridin-2-ylmethoxy)-2-[2-(2-methyl-4-methylaminomethyl-phenyl)-2-oxo-ethyl]-2H-pyridazin-3-one]
7.47 |  | COc1ccc(COc2cnn(CC(=O)c3ccc(CN4CCC(O)CC4)cc3C)c(=O)c2)nc1 [Example 9.2, 2-{2-[4-(4-Hydroxy-piperidin-1-ylmethyl)-2-methyl-phenyl]-2-oxo-ethyl}-5-(5-methoxy-pyridin-2-ylmethoxy)-2H-pyridazin-3-one]
